Measurements as given in patent US11000537B2, “Composition comprising novel ginsenoside” (AMOREPACIFIC CORPORATION, priority 2018, dated 2021).

Tests used:
Type in all cases: cell-based
SREBP1a = SREBP1a gene expression in HepG2 (qPCR); conditions: 10 μM, 24 hours, FIG. 30
Procedure: The hepatocyte cell line HepG2 purchased from the International Center for Biological Resources (ATCC) were placed in Dulbecco's Modified Eagle's Medium (Sigma) to which 10% fetal bovine serum (Hyclone) and 1% penicillin/streptomycin (Sigma) were added, and cultured in a 5% CO2 incubator. As a positive control, Simvastatin (Sigma Aldrich; St. Louis, Mo.), which is known as a lipid lowering agent of the HMG-CoA reductase inhibitor family and reduces cholesterol production in the blood, was used. For the experiment, seven types of ginsenoside (GS #01-GS #06, GS #10; 10 μM each) extracted from Ginseng seeds were treated for 24 hours, and the cells were collected. RNA was extracted using Trizol™ reagent (Thermo Fisher Scientific) and cDNA was synthesized using RevertAid™ 1st strand cDNA synthesis kit (Thermo Fisher Scientific). Bio-Rad's CFX96 real-time quantitative PCR (qPCR) instrument was used to observe the expression of HMG-CoA (3-hydroxy-3-methyl-glutaryl-coenzyme A) reductase, a key gene for cholesterol synthesis. In the same way, LDL (low-density lipoprotein) was absorbed into cells, and the expression of LDL receptor (LDLR), which serves to lower blood cholesterol levels, was observed.
LDLR is controlled by the SREBP1a gene. […]

3T1-L1 adipocytes = test: glucose uptake (glucose transport) in differentiated adipocytes; conditions: 1, 10 μM; compared with ginsenosides Rg1, Rg3, Rb1; FIG. 16
[1] = test system: FAS (Fatty acid synthase); test: FAS gene expression in HepG2 (qPCR); conditions: 24 hours
Procedure: (§1) The hepatocyte cell line HepG2 purchased from the International Center for Biological Resources (ATCC) were placed in Dulbecco's Modified Eagle's Medium (Sigma) to which 10% fetal bovine serum (Hyclone) and 1% penicillin/streptomycin (Sigma) were added, and cultured in a 5% CO2 incubator. […] After 24 hours of treatment, cells were collected, RNA was extracted using Trizol™ reagent (Thermo Fisher Scientific), and cDNA was synthesized using RevertAid™ 1st strand cDNA synthesis kit (Thermo Fisher Scientific). Bio-Rad's CFX96 real-time quantitative PCR (qPCR) instrument was used to observe the expression of the genes SREBP1c (sterol-regulatory element binding protein 1c), ACC (acetyl-CoA carboxylase) and FAS (Fatty acid synthase), which induces fat synthesis or accumulation.

LDL receptor (LDLR) = test: LDL receptor gene expression in HepG2 (qPCR); conditions: 24 hours
[2] = test system: PPARγ (Peroxisome proliferator-activated receptor gamma); test: PPARγ adipocyte marker gene expression (qPCR)
Procedure: The adipocyte cell 3T3-L1 purchased from the International Center for Biological Resources (ATCC) were placed in Dulbecco's Modified Eagle's Medium (Sigma) to which 10% fetal bovine serum (Hyclone) and 1% penicillin/streptomycin (Sigma) were added, and cultured in a 5% CO2 incubator. In order to differentiate preadipocytes into adipocytes, the cells were filled in a culture plate and cultured. After 48 hours, the cells were replaced with Dulbecco's modified eagle medium (DMEM) to which 10% of fetal bovine serum (Hyclone), 0.5 mM of 3-isobutyl-1-methylxanthine (Sigma), 1 μM of dexamethasone (Sigma), 5 μg/ml of insulin (Sigma), 1% of penicillin/streptomycin (Sigma) were added and further cultured for 48 hours. During 48 hours of culture, seven types of ginsenoside reagents (GS #01-GS #06, GS #10) extracted from Ginseng seeds were treated at 10 μM each to affect adipocyte differentiation. […]
After the differentiation of adipocytes in the same manner as above, the expressions of PPARγ (Peroxisome proliferator-activated receptor gamma), aP2 (Adipocyte protein 2) and CD36 were observed as adipocyte marker genes. […] Bio-Rad's CFX96 real-time quantitative PCR (qPCR) instrument was used to quantify the expression levels of each gene. […]

[3] = test system: ACC (acetyl-CoA carboxylase); test: ACC gene expression in HepG2 (qPCR); conditions: 24 hours
Procedure: The hepatocyte cell line HepG2 purchased from the International Center for Biological Resources (ATCC) were placed in Dulbecco's Modified Eagle's Medium (Sigma) to which 10% fetal bovine serum (Hyclone) and 1% penicillin/streptomycin (Sigma) were added, and cultured in a 5% CO2 incubator. As a positive control, fenofibrate (FF, Sigma), which is used as an antihyperlipidemic drug, was used, and 7 kinds of ginsenosides (GS #01-GS #06, GS #10; 10 μM each) extracted from Ginseng seed were used for the experiment. After 24 hours of treatment, cells were collected, RNA was extracted using Trizol™ reagent (Thermo Fisher Scientific), and cDNA was synthesized using RevertAid™ 1st strand cDNA synthesis kit (Thermo Fisher Scientific). Bio-Rad's CFX96 real-time quantitative PCR (qPCR) instrument was used to observe the expression of the genes SREBP1c (sterol-regulatory element binding protein 1c), ACC (acetyl-CoA carboxylase) and FAS (Fatty acid synthase), which induces fat synthesis or accumulation.

[4] = test system: SREBP1c (sterol-regulatory element binding protein 1c); test: SREBP1c gene expression in HepG2 (qPCR); conditions: 24 hours
Procedure: as §1

CC1(C)C(=O)CC[C@@]2(C)C1[C@@H](O[C@H]1OC(CO)[C@H](O)C(O)C1O[C@H]1OC(CO)[C@H](O)C(O)C1O)C[C@]1(C)C2C[C@@H](O)C2C([C@]3(C)CC[C@H](C(C)(C)O)O3)CC[C@]21C (stereo partly drawn) [GS #10, (20S,24R)-6-O-β-D-glucopyranosyl(1→2)-β-D-glucopyranoside-dammar-3-one-20,24-epoxy-6a,12b,25-triol]
expression of SREBP1a (SREBP1a): did not inhibit the expression of SREBP1a but rather tended to increase the expression thereof
glucose transport ability (3T1-L1 adipocytes): much superior
FAS expression inhibitory effect ([1]; 10 μM, HepG2, FIG. 20): significantly higher expression inhibitory effect
FAS expression inhibitory effect ([1]; 1, 10 μM, compared with Rg1, Rg3, Rb1, FIG. 25): far superior in lipid metabolism inhibitory effect
increase of LDLR expression level compared to the control (−) (LDL receptor (LDLR); 10 μM, HepG2, FIG. 29): more than 2 times
promotion of intracellular transport (LDLR expression) (LDL receptor (LDLR); 1 and 10 μM, compared with Rg1, Rg3, Rb1, FIG. 32): most effective in inhibiting cholesterol synthesis and promoting intracellular transport
adipocyte differentiation inhibition, PPARγ gene expression ([2]; 1 μM and 10 μM, compared with Rg1, Rg3, Rb1, FIG. 39): far superior in adipocyte differentiation inhibition
adipocyte differentiation inhibition, PPARγ gene expression ([2]; 10 μM, FIG. 35): more effective in inhibiting the adipocyte differentiation
ACC expression inhibitory effect ([3]; 10 μM, HepG2, FIG. 19): significantly higher expression inhibitory effect
ACC expression inhibitory effect ([3]; 1, 10 μM, compared with Rg1, Rg3, Rb1, FIG. 24): far superior in lipid metabolism inhibitory effect
SREBP1c expression inhibitory effect ([4]; 10 μM, HepG2, FIG. 18): significantly higher expression inhibitory effect
SREBP1c expression inhibitory effect ([4]; 1, 10 μM, compared with Rg1, Rg3, Rb1, FIG. 23): far superior in lipid metabolism inhibitory effect
